Results: patent US12486303B2, “Use of peptide for inhibiting functions and expressions of multiple disease biomarkers” (NIBEC CO., LTD., priority 2018, dated 2025)

Test system: TNBS-induced colitis rats
Assay: TNBS colitis-induced animal model
Type: in vivo
Procedure: In order to determine whether or not the peptide according to the present invention has the effect of treating inflammatory colitis in vivo, the effect of treating colitis in a colitis-induced animal model was detected. Before induction of colitis, rats were allowed to drink water freely, although food was not supplied thereto for 24 hours. The rats were lightly anesthetized with ether. A rubber cannula (o.d., 2 mm) was inserted into the colon, the end of which was about 8 cm away from the anus and was located near the splenic flexure. 2,4,6-trinitro benzene sulfonic acid (TNBS; Sigma Chemical Co, St Louis, Missouri, USA) dissolved in a 50% (v/v) ethanolic aqueous solution was injected into the colon through the rubber cannula (15 mg/0.3 mL/rat). 72 hours after induction of colitis, the peptide of SEQ ID NO: 1 (30 mg/kg) was intraperitoneally injected once a day, and after administration for 7 days, the rats were sacrificed. The weight of the rats was measured at 9 AM every day, and the length of the colon was measured from the cecum to the anus using a vernier caliper (Mitutoyo, Japan) after rat sacrifice.
The extracted large intestine was frozen and stored at −70° ° C., the mucous membrane tissue was collected from the muscle layer of the large intestine, the weight of the mucous membrane tissue was measured, and 10 mg of the mucous membrane tissue was lysed in a triple wash buffer (50 mM Tris-HCl, pH 8.0, 150 mM NaCl, 0.1% sodium deoxycholate and 1 mM phenylmethysulfonyl and homogenized. Then, p40, TNF-α, and IL-12 were assayed using an ELISA kit (R&D, Minneapolis, MN, USA).

## C[C@@H](O)[C@H](NC(=O)[C@H](CO)NC(=O)[C@H](CS)NC(=O)[C@H](CCCCN)NC(=O)CN)C(=O)N[C@@H](CCCNC(=N)N)C(=O)NCC(=O)N[C@@H](CCCNC(=N)N)C(=O)N[C@@H](CCCCN)C(=O)N[C@@H](CS)C(=O)N[C@@H](CS)C(=O)N[C@@H](CCCNC(=N)N)C(=O)N[C@@H](CCCNC(=N)N)C(=O)N[C@@H](CCCCN)C(=O)N[C@@H](CCCCN)C(=O)O [SEQ ID NO: 1]
30 mg/kg intraperitoneally
  Expression of IL-12 in large intestine mucous membrane tissue (ELISA): decreased
  Expression of TNF-α in large intestine mucous membrane tissue (ELISA): decreased
  Expression of p40 in large intestine mucous membrane tissue (ELISA): decreased
30 mg/kg intraperitoneally once a day, 7 days, 8th day
  Visual observation of large intestine: appeared similar to the normal group (CON), indicating that colitis was remarkably suppressed
